The record followed here is patent US20240197709A1, “POTENTIATING THE TUMOR-SELECTIVE EFFECTS OF NQO1-BIOACTIVATABLE AGENT BY USE OF CMET INHIBITOR” (The Trustees of Indiana University, priority 2022, published 2024).

Holding throughout (type): cell-based
One experiment relates to Capan2 PDAC shMET cells. Put plainly: transwell migration and invasion, Capan2 shSCR vs shMET. Conditions: β-lap 2 μM 2 h, versus shSCR control. Here is the method: FIG. 4-1D. Representative images from in vitro transwell migration assay comparing Capan2 shSCR and Capan2 shMET treated with vehicle control or sub-lethal β-lap (2 μM, 2 h). Images were taken at 16 h post-treatment.
FIG. 4-1E. Bar graph illustrating the percentage of Capan2 shSCR vs shMET PDAC cell migration at 16 h post-treatment with vehicle or sub-lethal β-lap (2 μM, 2 h). Two-way ANOVA was used for statistical analyses; * p<0.05; **** p<0.0001.
FIG. 4-1F. Representative images from in vitro transwell invasion assay comparing Capan2 shSCR and Capan-2 shMET treated with vehicle control or sub-lethal β-lap (2 μM, 2 h). Images were taken at 16 h post-treatment.
FIG. 4-1G. Bar graph illustrating the percentage of Capan2 shSCR vs shMET PDAC cell invasion at 16 h post-treatment with vehicle or sub-lethal β-lap (2 μM, 2 h). Two-way ANOVA was used for statistical analyses; * p<0.05; **** p<0.0001.
(§1) Overexpression of cMET in many cancers, including NSCLC and PDAC, is known to enhance cancer cell mobility, migration, and invasion (Spina, et al., Biomedicines 2015, 3(1), 71-88). […]

The next experiment relates to A549 NSCLC cells. Put plainly: long-term cell survival assay, A549. Conditions: sub-lethal crizotinib (2 μM) 2 h pre-treatment, then criz ± β-lap 2 h, ~7 days, DER >1 = synergistic. The method, then:
FIG. 1B. […] LC50 values were calculated from long-term cell survival graphs using GraphPad PRISM; ND denotes Not Determined even at the highest concentration presented. All error bars represent the mean±SEM. **** p<0.0001, *** p<0.001, ** p<0.01, *p<0.05.
FIG. 1C. […] LC50 values were calculated from long-term cell survival graphs using GraphPad PRISM; ND denotes Not Determined even at the highest concentration presented. All error bars represent the mean±SEM. **** p<0.0001, *** p<0.001, ** p<0.01, *p<0.05.

Experiment [1] has as its system Vimentin protein expression in A549 shSCR. Put plainly: Western blot of Vimentin, A549 shSCR versus shMET. The following applies: sub-lethal β-lap 2 h, further reduced in shMET. The method, then:
FIG. 4-1C. Western blot analysis of Vimentin protein expression in A549 shSCR versus shMET treated with vehicle control or non-lethal β-lap doses for 2 h.
Overexpression of cMET in many cancers, including NSCLC and PDAC, is known to enhance cancer cell mobility, migration, and invasion (Spina, et al., Biomedicines 2015, 3(1), 71-88). […] Thus, we investigated whether treatment with non-lethal β-lap in combination with inhibition of cMET activity (i.e., via pharmacological or genetic interventions) can target and mitigate cancer invasion or migration using Boyden chamber (Chen, Methods Mol Biol 2005, 294, 15-22; Eccles, et al., Biotechnol Annu Rev 2005, 11, 391-421) and wound-healing (Liang, et al., Nat Protoc 2007, 2(2), 329-33) assays. […] Likewise, we noted a decrease in the expression of a transcription factor that promotes invasion and migration, Twist (Khan et al., Tumour Biol 2013, 34(5), 2497-506), with the combination treatment relative to vehicle control (FIG. 4E, G). Addition of DIC to the combination treatment reverted Twist and E-cadherin protein expression to almost similar level as vehicle-treated control. shRNA mediated knockdown of cMET expression in A549 and Capan2 decreased their migratory and invasive phenotypes relative to their corresponding shSCR controls, which is consistent with the canonical role of cMET in invasive cancers. […]

The next experiment concerns A549 NQO1−/− cells. Put plainly: long-term cell survival, A549 NQO1 knock out. The following applies: β-lap alone. Here is the method:
LC50 values were calculated from long-term cell survival graphs using GraphPad PRISM; ND denotes Not Determined even at the highest concentration presented. All error bars represent the mean±SEM. **** p<0.0001, *** p<0.001, ** p<0.01, *p<0.05.
FIG. 1F. […] LC50 values were calculated from long-term cell survival graphs using GraphPad PRISM; ND denotes Not Determined even at the highest concentration presented. All error bars represent the mean±SEM. **** p<0.0001, *** p<0.001, ** p<0.01, *p<0.05.

A further experiment relates to A549 shMET. Put plainly: migration and invasion, A549 shSCR versus shMET. Conditions: β-lap 3 μM 2 h, p<0.001. The method, then: FIG. 4H. Representative images of A549 shSCR versus shMET migration at 16 h following treatments with DMSO-treated control and β-Lap (3 μM) for 2 h. Scale bars, 50 μm;
FIG. 4I. Bar graph showing quantification of cell migration expressed as a percent of control (vehicle). Quantitative data were shown as the mean±SEM. **** p<0.0001, ** p<0.01, *p<0.05, ns=not significant.
FIG. 4J. Representative images of A549 shSCR versus shMET invasion using a matrigel-coated transwell system at 16 h following treatments with DMSO-treated control and β-Lap (3 μM) for 2 h. Scale bars, 50 μm;
FIG. 4K. Bar graph showing quantification of cell invasion expressed as a percent of control (vehicle). Quantitative data were shown as the mean±SEM. **** p<0.0001, ** p<0.01, *p<0.05, ns=not significant.
FIG. 4-1B. Bar graph illustrating percentage wound closure at indicated time points in A549 shSCR versus shMET treated with vehicle control or non-lethal β-lap for 2 h. Two-way ANOVA was used for statistical analyses; * p<0.05.
as §1

As to `CC1(C)CCC2=C(O1)c1ccccc1C(=O)C2=O` [β-lap, β-Lapachone], in the experiment with Capan2 PDAC shMET cells, the cell invasion entry is “significantly reduced” and the cell migration entry was “significantly reduced”. Also, the “DERLC50 (dose-enhancement ratio) of β-lap” value in the experiment on A549 NSCLC cells came to 6.6. Also, the Vimentin expression entry in experiment [1] was “decreased Vimentin expression”. For the same molecule, the “sensitivity after knocking out NQO1” value in the experiment with A549 NQO1−/− cells is listed as “more resistant”. Further, in the experiment with A549 shMET, the cell invasion entry is on record as “significantly reduces” and the cell migration entry is “significantly reduces”.
